The target of the assay is human MGAT-2 (Homo sapiens (Human), UniProt Q3SYC2). The assay is described as follows: MGAT LCMS assay (h-MGAT LCMS). In kind it is biochemical. The following applies: human MGAT2 membranes expressed in Sf9 cells; 100 μM 2-oleoylglycerol, 15 μM oleoyl-coenzyme A. How it is done:
The MGAT enzyme reactions were performed in Corning FALCON® 96-well polypropylene plates, in a total volume of 60 μL of 50 mM potassium phosphate buffer pH 7.4, containing a final concentration of 100 μM 2-oleoylglycerol, 15 μM oleoyl-coenzyme A and 0.0013 μg/μL human or mouse MGAT-2 or 0.0026 μg/μL rat recombinant MGAT-2 membranes expressed in Sf9 cells. Assay plates were run through a fully automated robotics system and shaken for 5 seconds every minute for a total 10 minutes. The reactions were then quenched with 120 μL of ice cold methanol containing 1 μg/mL 1,2-distearoyl-rac-glycerol as the internal standard. Plates were shaken for 2 minutes and spun down to remove protein precipitation. After the spin, samples were transferred to LC/MS compatible PCR plates. For LC/MS analysis, a ThermoFisher Surveyor pump, utilizing a Waters […]® C8, 50×2.1 mm column, was used for the chromatography of enzyme products. The buffer system consists of 0.1% formic acid in water with a mobile phase consisting 0.1% formic acid in methanol. The shallow gradient is 90-100% mobile phase in 0.2 min with a total run time of 2.3 min. The first 0.5 minutes of each injection was diverted to waste to eliminate the presence of phosphate buffer in the enzymatic reaction. The column was run at 0.6 mL/min and a temperature of 65° C. Mass spectrometry analysis of the samples was performed on a ThermoFisher Quantum Triple quad utilizing APCI (+) as the mode of ionization. Data was acquired in Single Ion Monitoring (SIM) mode analyzing Diolein=m/z 603.6 (PRODUCT) and 1,2-distearoyl-rac-glycerol (IS)=m/z 607.6. The ratio of Diolein to internal standard (Peak Area Ratio) is utilized to calculate IC50 values.
“NT” denotes “Not tested”.

Chain of human MGAT-2 (Q3SYC2 whole entry): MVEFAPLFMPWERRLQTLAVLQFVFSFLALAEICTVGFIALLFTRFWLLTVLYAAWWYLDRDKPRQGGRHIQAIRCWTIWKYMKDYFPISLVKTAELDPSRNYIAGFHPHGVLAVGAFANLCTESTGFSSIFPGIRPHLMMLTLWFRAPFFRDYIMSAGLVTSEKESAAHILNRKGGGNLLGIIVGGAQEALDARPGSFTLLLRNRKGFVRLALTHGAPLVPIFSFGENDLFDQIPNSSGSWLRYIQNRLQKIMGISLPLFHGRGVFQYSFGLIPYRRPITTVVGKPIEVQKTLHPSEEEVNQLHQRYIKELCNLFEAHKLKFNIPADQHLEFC

Usually IC50 stands for the point on the concentration scale where inhibition reaches its midpoint. The low end stands for inhibition by little substance, the high end for a need for much substance. Compound `Cc1ccc(C2=C(c3nnn[nH]3)C(=O)N[C@@](c3ccc(OCCCC(F)(F)F)cc3)(C(F)(F)F)C2)s1` [Example 2] came in with an IC50 of 41 nM.

Regarding `CN(C)c1cnc(C2=C(c3nnn[nH]3)C(=O)N[C@@](c3ccc(OCCCCC(F)(F)F)cc3)(C(F)(F)F)C2)s1` [Example 45], the IC50 was 3.5 nM. As for `CC(C)n1ccc(C2=C(c3nnn[nH]3)C(=O)N[C@@](c3ccc(OCCCC(F)(F)F)cc3F)(C(F)(F)F)C2)n1` [Example 39], the half-inhibitory concentration (IC50) was determined as 16.6 nM. Compound `O=C1N[C@@](c2ccc(OCCCC(F)(F)F)cc2F)(C(F)(F)F)CC(c2ccn(CC3CCC3)n2)=C1c1nnn[nH]1` [Example 53] returned an IC50 of 44 nM.

With `CCc1ccc(C2=C(NC(=O)CS(C)(=O)=O)C(=O)N[C@@](c3ccc(OCCCCCC(F)(F)F)cc3)(C(F)(F)F)C2)s1` [Example 75, (S)—N-(4-(5-Ethylthiophen-2-yl)-2-oxo-6-(4-((6,6,6-trifluorohexyl)oxy)phenyl)-6-(trifluoromethyl)-1,2,5,6-tetrahydropyridin-3-yl)-2-(methylsulfonyl)acetamide], the IC50 was 1.5 nM.

`O=C1N[C@@](c2ccc(OCCCC(F)(F)F)cc2F)(C(F)(F)F)CC(c2ccn(C3CC3)n2)=C1c1nnn[nH]1` [Example 41]: it took 73.6 nM to reach half-maximal inhibition (IC50). `O=C1N[C@@](c2ccc(OCCCC(F)(F)F)cc2)(C(F)(F)F)CC(c2ccn(C3CC3)n2)=C1c1nnn[nH]1` [Example 17] had an IC50 of 16.6 nM. Regarding `O=C1N[C@@](c2ccc(OCCCCCC(F)(F)F)cc2Cl)(C(F)(F)F)CC(c2ncc(C3CC3)s2)=C1c1nnn[nH]1` [Example 63], half-maximal inhibition (IC50) required 0.7 nM. In turn, `CCn1ccc(C2=C(c3nnn[nH]3)C(=O)N[C@@](c3ccc(OCCCC(F)(F)F)cc3F)(C(F)(F)F)C2)n1` [Example 43] came in with an IC50 of 20.2 nM. For the compound `O=C1N[C@@](c2ccc(CCCCC(F)(F)F)cc2F)(C(F)(F)F)CC(c2ccn(C3CCC3)n2)=C1c1nnn[nH]1` [Example 47], the IC50 was determined as 2.7 nM.

Compound `CCn1ccc(C2=C(c3nnn[nH]3)C(=O)N[C@@](c3ccc(OCCCCCC(F)(F)F)cc3)(C(F)(F)F)C2)n1` [Example 29] returned an IC50 of 52.1 nM. The compound `O=C1N[C@@](c2ccc(OCCCC(F)(F)F)cc2Cl)(C(F)(F)F)CC(c2ccc(C3CC3)s2)=C1c1nnn[nH]1` [Example 56] had an IC50 of 0.2 nM.

Regarding `O=C1N[C@@](c2ccc(OCCCC(F)(F)F)cc2F)(C(F)(F)F)CC(c2ccn(CC3CC3)n2)=C1c1nnn[nH]1` [Example 52], half-maximal inhibition (IC50) was put at 3.2 nM. Take `Cc1csc(C2=C(C#N)C(=O)N[C@@](c3ccc(OCCCC(F)(F)F)cc3)(C(F)(F)F)C2)c1` [Example 69, (S)-4-(4-Methylthiophen-2-yl)-2-oxo-6-(4-(4,4,4-trifluorobutoxy)phenyl)-6-(trifluoromethyl)-1,2,5,6-tetrahydropyridine-3-carbonitrile]: the IC50 was found to be 148 nM. As to `O=C1N[C@@](c2ccc(OCCCCC(F)(F)F)cc2)(C(F)(F)F)CC(c2ccc(C3CC3)s2)=C1c1nnn[nH]1` [Example 44], half-maximal inhibition (IC50) required 15.2 nM.

`CCc1ccc(C2=C(c3nnn[nH]3)C(=O)N[C@@](c3ccc(Br)cc3)(C(F)(F)F)C2)s1` [Example 65] showed an IC50 of 8.8 nM. For `O=C1N[C@@](c2ccc(OCCCC(F)(F)F)cc2)(C(F)(F)F)CC(c2ccn(C3CCC3)n2)=C1c1nnn[nH]1` [Example 20], it took 74.7 nM to reach half-maximal inhibition (IC50). The compound `O=C1N[C@@](c2ccc(OCCCC(F)(F)F)cc2Cl)(C(F)(F)F)CC(c2ccn(C3CC3)n2)=C1c1nnn[nH]1` [Example 61] gave an IC50 of 120 nM. Then `CC(C)n1cc(C2=C(c3nnn[nH]3)C(=O)N[C@@](c3ccc(OCCCCCC(F)(F)F)cc3)(C(F)(F)F)C2)c2ccccc21` [Example 34], with 86.9 nM; and `CCCCCCC#C[C@]1(C(F)(F)F)CC(c2ccc(Br)s2)=C(c2nnn[nH]2)C(=O)N1` [Example 6], with 2.2 nM. As for `Cc1cnn(C2=C(C#N)C(=O)N[C@@](c3ccc(OCCCC(F)(F)F)cc3)(C(F)(F)F)C2)c1` [Example 77], the half-maximal inhibitory concentration (IC50) was determined as 522 nM.
